Paper PMC9149975, “The diaryl-imidazopyridazine anti-plasmodial compound, MMV652103, exhibits anti-breast cancer activity” (EXCLI Journal, 2022)
Read-outs that look alike come from different tables or passages of the source.

Legend:
[1] = Solubility in DMSO at 10 mM; assay type: physicochemical; conditions: final concentration 10 mM
[2] = tested on: T47D (ER+) breast cancer cells; test: MTT cytotoxicity assay, T47D; assay type: cell-based, human; conditions: for IC50: Homo sapiens, T47D
Description: Human estrogen-receptor positive (ER+) breast adenocarcinoma cell lines, MCF7 and T47D, were maintained in Roswell Park Memorial Institute-1640 medium (Sigma Aldrich, Missouri, USA) and the human epidermal growth factor receptor 2 positive (HER2+) BT474, and triple negative (TNBC) MDA-MB-231 and MDA-MB-468 cells were maintained in Dulbecco's Modified Eagle's Medium (DMEM) (Sigma Aldrich, Missouri, USA). FG0 human skin fibroblasts (provided by Associate Professor Denver Hendricks, University of Cape Town) were maintained in DMEM while the normal breast epithelial cell line MCF12A was maintained in DMEM:nutrient mixture F-12 (DMEM/F12; 1:1; Sigma Aldrich, Missouri, USA), supplemented with 20 ng/ml epidermal growth factor, 100 ng/ml cholera toxin, 500 ng/ml hydrocortisone and 10 µg/ml insulin. All media were supplemented with 10 % fetal bovine serum, 100 U/ml penicillin and 100 µg/ml streptomycin. Cells were maintained at 37 °C in a 5 % CO2 and 95 % air-humidified incubator. Media was replaced every 2-3 days and cells were routinely tested for mycoplasma infection.
(§1) Cells (3.5×10^3-6×10^3 / well) were seeded in 96-well plates and treated at a 60-70 % confluence with a range of concentrations (0-10 μM) of test compounds or vehicle for 48 h. Cell viability was measured using the 3-(4,5-dimethylthiazol-2-yl)-2,5-diphenyl-trazolium bromide (MTT) assay (11465007001; Sigma Aldrich) according to the manufacturer's instructions. Mean cell viability was calculated as a percentage of the mean vehicle control. A minimum of three independent experiments in quadruplicate were performed from which the IC50 was determined from sigmoidal plots using GraphPad Prism version 6.0 (GraphPad Software, California, USA). The selectivity index (SI) was determined by dividing the IC50 of a non-malignant cell line by the IC50 of a cancer cell line.

[3] = tested on: MDA-MB-231 (TNBC) breast cancer cells; test: MTT cytotoxicity assay, MDA-MB-231; assay type: cell-based; conditions: Homo sapiens
Protocol: Human estrogen-receptor positive (ER+) breast adenocarcinoma cell lines, MCF7 and T47D, were maintained in Roswell Park Memorial Institute-1640 medium (Sigma Aldrich, Missouri, USA) and the human epidermal growth factor receptor 2 positive (HER2+) BT474, and triple negative (TNBC) MDA-MB-231 and MDA-MB-468 cells were maintained in Dulbecco's Modified Eagle's Medium (DMEM) (Sigma Aldrich, Missouri, USA). […]
as §1

PIK3C2A = molecular target: T1, PIK3C2A (Homo sapiens, UniProt O00443); test: ADP-Glo lipid kinase assay, PIK3C2A; assay type: biochemical; conditions: 10 µM compound
T1 construct: purchased Carna Biosciences Inc; Invitrogen Corporation

PIK3C2B = molecular target: T2, PIK3C2B (Homo sapiens, UniProt O00750); test: ADP-Glo lipid kinase assay, PIK3C2B; assay type: biochemical; conditions: 10 µM compound
T2 construct: purchased Carna Biosciences Inc; Invitrogen Corporation

PIK3CA/ PIK3R1 = molecular target: T3, PIK3CA/ PIK3R1 (Homo sapiens, UniProt P42336); test: ADP-Glo lipid kinase assay, PIK3CA/PIK3R1; assay type: biochemical; conditions: 10 µM compound
T3 construct: purchased Carna Biosciences Inc; Invitrogen Corporation

PIK3CB/ PIK3R1 = molecular target: T4, PIK3CB/ PIK3R1 (Homo sapiens, UniProt P42338); test: ADP-Glo lipid kinase assay, PIK3CB/PIK3R1; assay type: biochemical; conditions: 10 µM compound
T4 construct: purchased Carna Biosciences Inc; Invitrogen Corporation

PIK3CD/ PIK3R1 = molecular target: T5, PIK3CD/ PIK3R1 (Homo sapiens, UniProt O00329); test: ADP-Glo lipid kinase assay, PIK3CD/PIK3R1; assay type: biochemical; conditions: 10 µM compound
T5 construct: purchased Carna Biosciences Inc; Invitrogen Corporation

PIK3CG = molecular target: T6, PIK3CG (Homo sapiens, UniProt P48736); test: ADP-Glo lipid kinase assay, PIK3CG; assay type: biochemical; conditions: 10 µM compound
T6 construct: purchased Carna Biosciences Inc; Invitrogen Corporation

T47D cells [4] = test: Scratch motility assay, T47D; assay type: cell-based, human; conditions: IC50 and 2 x IC50; 3, 6, 9 h
Protocol: Cells were grown to 100 % confluence in 12-well tissue culture plates and the following day a sterile 2 µl pipette tip was used to make a vertical scratch in the cell monolayer of each well and the cells treated with mitomycin C (M4287; Sigma Aldrich) at a final concentration of 10 μg/ml to inhibit proliferation. Cells were subsequently treated with MMV652103 or vehicle and imaged at 0, 3, 6 and 9 h post wound formation and ImageJ v1.50i software was used to calculate the area of the scratch (Schneider et al., 2012[73]). The total areas migrated was determined by subtracting the area for a specific time point from the area measured at 0 h.

T47D cells [5] = test: Western blotting / immunofluorescence, T47D; assay type: cell-based, human
Protocol: Cells were exposed to MMV652103 or vehicle for 24 and 48 h. Cell lysates were prepared, and western blotting performed as previously described (Abrahams et al., 2008[1]). Primary antibodies were: PARP1/2 (sc-7150, 1:1000), p53 (sc-126, 1:1000), p21 (sc-756, 1:1000), cyclin B1 (H-433) (sc-752, 1:500) from Santa Cruz (California, USA), phospho-H2AX (#2577, 1:1000), phospho-p38 MAP Kinase (#9211, 1:1000), LC3 (#2775, 1:1000), caspase-7 (#9492, 1:1000), caspase-8 (#9746, 1:1000), caspase-9 (#9502S, 1:1000), from Cell Signaling (Boston, MA, USA), PUMA (ab9643, 1:1000) (AbCam, Cambridge, MA, USA) and p38 (M0800, 1:5000) from Sigma (St. Louis, MO, USA). Total p38 was used as a loading control because although its activity is modulated by phosphorylation, its total levels remain unaltered in response to stimuli (Raingeaud et al., 1995[68]). Densitometry readings were obtained using ImageJ v1.50i58 and protein expression levels were represented as a ratio of protein of interest/p38 loading control normalized to the vehicle treated control sample where appropriate. All blots are representative of at least three independent experiments.
Cells on glass coverslips were treated with either MMV652103 or vehicle for 24 and 48 h and processed for immunofluorescence with antibodies against phospho H2A.X (#2577) (1:500) or LC3B (#2775) (1:200) (Cell Signaling Technology) as previously described (Bleloch et al., 2019[8]). Cells were imaged using confocal microscopy (Carl Zeiss LSM 880 with Fast Airyscan module confocal (Oberkochen, Germany)). Multiple z layers were acquired with […] step width. Images were processed using ZEN 2012 imaging software (Carl Zeiss) and maximum intensity projections were generated. For quantification, mean fluorescence was measured from at least 20 fields of view per treatment condition and pooled from three independent replicates.

T4 sequence (P42338 whole entry): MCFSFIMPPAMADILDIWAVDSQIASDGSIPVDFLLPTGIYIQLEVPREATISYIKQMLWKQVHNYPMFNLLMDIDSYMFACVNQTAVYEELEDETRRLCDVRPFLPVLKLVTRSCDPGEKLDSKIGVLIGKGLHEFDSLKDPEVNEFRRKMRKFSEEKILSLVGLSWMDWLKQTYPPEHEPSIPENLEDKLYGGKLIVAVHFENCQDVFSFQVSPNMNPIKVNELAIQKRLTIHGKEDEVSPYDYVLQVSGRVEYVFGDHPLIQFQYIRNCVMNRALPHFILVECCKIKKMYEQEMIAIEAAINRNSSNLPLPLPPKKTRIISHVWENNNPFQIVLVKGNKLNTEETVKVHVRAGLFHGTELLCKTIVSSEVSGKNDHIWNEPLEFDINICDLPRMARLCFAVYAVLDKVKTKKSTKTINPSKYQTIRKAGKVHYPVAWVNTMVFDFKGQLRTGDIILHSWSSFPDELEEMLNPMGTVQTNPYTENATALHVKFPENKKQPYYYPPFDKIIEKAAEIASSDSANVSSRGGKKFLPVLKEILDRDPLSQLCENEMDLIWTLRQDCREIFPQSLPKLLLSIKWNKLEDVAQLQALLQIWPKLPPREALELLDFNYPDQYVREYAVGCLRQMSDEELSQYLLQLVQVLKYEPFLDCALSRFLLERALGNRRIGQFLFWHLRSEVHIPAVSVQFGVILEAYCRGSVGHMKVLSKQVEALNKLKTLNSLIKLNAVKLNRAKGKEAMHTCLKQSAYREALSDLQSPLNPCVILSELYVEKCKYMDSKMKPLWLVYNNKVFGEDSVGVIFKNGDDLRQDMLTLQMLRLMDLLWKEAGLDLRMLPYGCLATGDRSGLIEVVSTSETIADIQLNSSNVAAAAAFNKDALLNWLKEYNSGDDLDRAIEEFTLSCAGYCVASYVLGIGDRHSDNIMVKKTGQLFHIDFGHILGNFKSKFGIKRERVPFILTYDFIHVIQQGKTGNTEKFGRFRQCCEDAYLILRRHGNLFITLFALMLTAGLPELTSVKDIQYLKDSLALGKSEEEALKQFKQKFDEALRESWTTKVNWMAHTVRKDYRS
T4 sequence (P27986 whole entry partner): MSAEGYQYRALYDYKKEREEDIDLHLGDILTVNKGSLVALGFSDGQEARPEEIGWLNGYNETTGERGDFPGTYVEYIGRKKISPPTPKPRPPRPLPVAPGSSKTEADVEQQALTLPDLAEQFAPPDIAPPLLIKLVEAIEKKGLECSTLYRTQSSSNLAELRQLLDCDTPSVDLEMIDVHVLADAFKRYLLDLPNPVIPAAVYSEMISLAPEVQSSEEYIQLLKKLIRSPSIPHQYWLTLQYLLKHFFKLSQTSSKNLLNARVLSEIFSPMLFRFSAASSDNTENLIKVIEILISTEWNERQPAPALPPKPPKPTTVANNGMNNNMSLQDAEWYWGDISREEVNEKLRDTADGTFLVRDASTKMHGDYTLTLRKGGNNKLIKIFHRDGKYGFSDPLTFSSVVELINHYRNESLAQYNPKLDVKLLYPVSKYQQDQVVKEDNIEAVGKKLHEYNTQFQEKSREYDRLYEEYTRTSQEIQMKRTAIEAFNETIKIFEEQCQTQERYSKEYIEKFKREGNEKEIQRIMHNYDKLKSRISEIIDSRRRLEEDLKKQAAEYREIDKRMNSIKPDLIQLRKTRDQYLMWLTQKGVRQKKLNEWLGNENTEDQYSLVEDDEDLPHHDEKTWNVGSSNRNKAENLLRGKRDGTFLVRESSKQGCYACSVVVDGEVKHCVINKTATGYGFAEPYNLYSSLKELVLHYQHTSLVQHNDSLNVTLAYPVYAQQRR
T2 sequence (O00750 whole entry): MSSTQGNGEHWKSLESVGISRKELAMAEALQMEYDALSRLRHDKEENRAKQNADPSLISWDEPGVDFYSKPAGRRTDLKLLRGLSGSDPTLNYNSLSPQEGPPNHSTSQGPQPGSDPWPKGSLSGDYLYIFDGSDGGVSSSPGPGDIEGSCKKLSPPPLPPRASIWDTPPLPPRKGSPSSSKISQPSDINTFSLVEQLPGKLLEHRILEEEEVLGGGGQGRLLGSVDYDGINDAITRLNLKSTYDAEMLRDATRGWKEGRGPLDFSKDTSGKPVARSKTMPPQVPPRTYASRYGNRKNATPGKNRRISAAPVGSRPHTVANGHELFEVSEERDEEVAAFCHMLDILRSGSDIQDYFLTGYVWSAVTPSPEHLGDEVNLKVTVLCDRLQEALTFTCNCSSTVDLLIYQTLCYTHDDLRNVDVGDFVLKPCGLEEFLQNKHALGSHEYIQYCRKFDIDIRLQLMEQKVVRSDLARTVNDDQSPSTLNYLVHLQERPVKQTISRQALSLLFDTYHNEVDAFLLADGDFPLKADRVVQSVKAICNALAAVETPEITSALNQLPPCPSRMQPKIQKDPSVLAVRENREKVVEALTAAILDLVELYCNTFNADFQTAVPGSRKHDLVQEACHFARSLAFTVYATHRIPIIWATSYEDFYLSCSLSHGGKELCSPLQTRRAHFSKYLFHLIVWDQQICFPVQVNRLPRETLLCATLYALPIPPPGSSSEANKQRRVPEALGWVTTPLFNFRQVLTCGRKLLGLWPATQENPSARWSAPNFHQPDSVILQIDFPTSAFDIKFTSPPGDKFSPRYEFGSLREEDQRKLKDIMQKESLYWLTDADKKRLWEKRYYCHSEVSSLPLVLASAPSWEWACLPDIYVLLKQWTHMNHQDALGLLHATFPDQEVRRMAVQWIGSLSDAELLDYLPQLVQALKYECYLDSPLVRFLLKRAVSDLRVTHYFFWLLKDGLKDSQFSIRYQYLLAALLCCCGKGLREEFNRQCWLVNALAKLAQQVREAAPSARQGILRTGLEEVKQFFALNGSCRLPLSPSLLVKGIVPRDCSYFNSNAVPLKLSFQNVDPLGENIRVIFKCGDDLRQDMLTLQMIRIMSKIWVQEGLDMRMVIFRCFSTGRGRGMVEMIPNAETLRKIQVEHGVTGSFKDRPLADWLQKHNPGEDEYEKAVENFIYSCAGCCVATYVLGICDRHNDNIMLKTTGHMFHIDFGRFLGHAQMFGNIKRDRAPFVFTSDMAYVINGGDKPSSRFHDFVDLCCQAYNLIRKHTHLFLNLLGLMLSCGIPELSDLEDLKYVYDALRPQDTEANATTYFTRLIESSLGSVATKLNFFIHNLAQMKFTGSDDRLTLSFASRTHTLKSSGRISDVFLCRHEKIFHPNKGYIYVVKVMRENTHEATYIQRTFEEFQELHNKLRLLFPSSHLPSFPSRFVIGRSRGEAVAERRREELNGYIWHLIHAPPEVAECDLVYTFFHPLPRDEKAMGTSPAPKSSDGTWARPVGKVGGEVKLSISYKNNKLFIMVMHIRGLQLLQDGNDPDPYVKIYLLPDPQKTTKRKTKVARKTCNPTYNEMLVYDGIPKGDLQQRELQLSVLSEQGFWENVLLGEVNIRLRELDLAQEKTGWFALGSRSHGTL
T6 sequence (P48736 whole entry): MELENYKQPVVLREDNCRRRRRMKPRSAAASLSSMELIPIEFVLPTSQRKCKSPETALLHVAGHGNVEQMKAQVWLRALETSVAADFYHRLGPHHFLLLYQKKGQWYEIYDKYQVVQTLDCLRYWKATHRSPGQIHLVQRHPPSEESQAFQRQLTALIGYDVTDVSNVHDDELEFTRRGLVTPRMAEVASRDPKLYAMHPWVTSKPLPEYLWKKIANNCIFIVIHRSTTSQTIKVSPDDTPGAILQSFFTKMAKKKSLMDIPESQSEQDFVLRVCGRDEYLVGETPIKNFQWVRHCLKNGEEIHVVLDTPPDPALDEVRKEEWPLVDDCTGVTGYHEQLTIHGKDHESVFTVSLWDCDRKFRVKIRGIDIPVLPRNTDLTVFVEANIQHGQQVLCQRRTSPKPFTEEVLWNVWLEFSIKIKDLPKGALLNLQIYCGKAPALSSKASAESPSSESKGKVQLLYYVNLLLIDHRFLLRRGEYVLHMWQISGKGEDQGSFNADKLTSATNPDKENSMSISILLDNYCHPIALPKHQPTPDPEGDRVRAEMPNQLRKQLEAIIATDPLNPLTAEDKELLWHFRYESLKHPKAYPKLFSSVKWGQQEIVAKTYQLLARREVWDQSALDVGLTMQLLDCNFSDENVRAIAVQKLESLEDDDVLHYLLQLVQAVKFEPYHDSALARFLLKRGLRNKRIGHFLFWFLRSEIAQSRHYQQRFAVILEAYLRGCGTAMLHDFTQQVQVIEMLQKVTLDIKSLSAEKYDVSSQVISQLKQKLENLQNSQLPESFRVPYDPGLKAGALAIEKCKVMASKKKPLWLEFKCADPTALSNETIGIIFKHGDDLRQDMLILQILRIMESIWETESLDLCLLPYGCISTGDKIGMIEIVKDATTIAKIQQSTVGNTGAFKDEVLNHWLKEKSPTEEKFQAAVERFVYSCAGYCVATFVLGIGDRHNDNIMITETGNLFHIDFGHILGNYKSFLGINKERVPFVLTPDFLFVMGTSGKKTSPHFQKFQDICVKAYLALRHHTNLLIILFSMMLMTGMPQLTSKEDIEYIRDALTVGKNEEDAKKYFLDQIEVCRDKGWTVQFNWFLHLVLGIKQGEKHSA

With `CS(=O)(=O)c1ccc(-c2cnc3ccc(-c4cccc(S(C)(=O)=O)c4)nn23)cc1` [MMV652103] the “Solubility (DMSO)” value [1] was “soluble in DMSO”, the “Solubility (DMSO)” value ([1]; listed as 652103) was “Successful” and the IC50 ([2]; Fig 2C summary, MTT 48 h, read-out: IC50 ± SEM T47D) was 2.9 ± 1.1 µM. For the same molecule, the IC50 ([2]; MTT, 48 h, read-out: IC50 T47D) was 2.9 µM, the “SI FG0 (T47D)” value ([2]; IC50 FG0 / IC50 T47D) was > 2 and the IC50 ([3]; Fig 2C summary, MTT 48 h, read-out: IC50 ± SEM MDA-MB-231) was 14.3 ± 1.03 µM. The IC50 ([3]; MTT, 48 h, read-out: IC50 MDA-MB-231) was 14.3 µM, the remaining activity at 10 µM (PIK3C2A) was 39% and the remaining activity at 10 µM (PIK3C2B) was 31%. The remaining activity at 10 µM (PIK3CA/ PIK3R1) was 3%, the remaining activity at 10 µM (PIK3CB/ PIK3R1) was 19% and the remaining activity at 10 µM (PIK3CD/ PIK3R1) was 3%. For the same molecule, the remaining activity at 10 µM (PIK3CG) was 2%, the T47D cell migration (T47D cells [4]) was “significant reduction” and the “levels of phosphorylated p38, T47D” value (T47D cells [5]; western blot) was “increased”. The “p21 levels, T47D” value (T47D cells [5]; western blot) was “increased”, the “levels of p53, T47D” value (T47D cells [5]; western blot, mutant non-functional p53) was “no effect” and the “levels of γH2AX, T47D” value (T47D cells [5]; ½ IC50 and IC50, 24 and 48 h) was “dose- and time-dependent increase”.
